Two compounds from ChEMBL document CHEMBL1134756, “Synthesis and evaluation of a difluoromethylene analogue of sphingomyelin as an inhibitor of sphingomyelinase” (Bioorg Med Chem Lett, 2001) can be followed below.

For orientation: inhibition means the share of the control response that was lost under treatment. High values mean a response far below the control, low ones a response near the control. One may read the IC50 as the midpoint of a concentration-inhibition curve.

Assay [1] deals with Sphingomyelin phosphodiesterase 1 (acid sphingomyelinase) (Bos taurus). Kind of assay: Inhibitory potency of compound against acidic (A-) SMase activity in bovine brain lysosomes microsomes(Ms) at concentration of 400 uM. The note with it: Microsome.
Assay [2] can be described thus: Inhibitory potency of compound against neutral (N-) SMase activity in bovine liver microsomes(Ms) at concentration of 400 uM. Particulars: Microsome. (In general: Liver microsomes are vesicles of endoplasmic reticulum, rich in cytochrome P450 enzymes.)
The nature of assay [3]: Inhibitory potency of compound against neutral (N-) SMase activity in bovine brain microsomes(Ms) at concentration of 400 uM. The note with it: Microsome.
The species named for assay [4] is Bos taurus. Briefly: Inhibitory potency of compound against ceramide synthase activity in bovine liver microsomes(Ms) at concentration of 400 uM. Particulars: Microsome.
Assay [5] is described as follows: Inhibitory potency of compound against neutral (N-) SMase activity in Bacillus cereus at concentration of 400 uM.
The species entered for assay [6] is Homo sapiens. Kind of assay: Inhibitory concentration against […] induced IL1-beta production in human peripheral monocytes. Type of assay: functional.

SMILES strings stand for the structures.

For `CCCCCCCCCCCCCCCCCC(=O)N[C@H](C(O)c1ccccc1)C(O)C(F)(F)P(=O)(O)O` (stereo partly specified), the inhibition in assay [1] was determined as 80%; in assay [2], 15%; in assay [3] it was 50%; in assay [4], 0%; in assay [5] it was 0%.

The compound `CC[C@@H](C)/C=C(\C)C[C@@H](C)C[C@@H](C)/C=C/C=C/C=C/C(=O)N[C@H](CO)C[C@@]1(O)C(=O)C=C[C@@H]2O[C@@H]21` [SCYPHOSTATIN] returned an IC50 in assay [6] of 100 nM. This counts as sub-micromolar.
